How the values were obtained:
[1] = test system: intramammary infections (mastitis); assay: Intramammary infection status before dry-off and after calving, all 4 quarters infused at dry-off; type: in vivo, cows; details: for new infections (quarters infected during the dry period) / old infections (quarters remaining infected after calving): group total after calving; for infected quarters at dry-off: baseline before infusion
Method: (§1) Experimental Design: At dry-off all quarters of even numbered cows (n=39) were infused with antibiotics (Cefa-Dri (Fort Dodge Animal Health, Fort Dodge, Iowa 50501) containing 300 mg cephapirin […] in peanut oil) approved for use by FDA. All quarters of odd numbered cows (n=40) were infused with dextran (total dose 100 mg DEAE-dextran (Sigma Chemical Co. St. Louis, Mo.)) in 1 ml of sterile filtered distilled water and suspended in 9 ml of peanut oil (Sigma).

[2] = Milk yield in the subsequent lactation after infusion at dry-off; type: in vivo, cows; details: for Mean yearly milk yield: mean per cow of the group
Method: as §1

[3] = test system: milk somatic cell concentration (SCC); assay: Milk somatic cell concentration (SCC) after intramammary infusion at drying-off; type: in vivo, dairy cows
Method: as §1
Mammary quarters of 4 dairy cows at drying-off were infused with either 100 mg of DEAE-dextran, peanut oil, or were uninfused. Secretions were collected at 0, 24, 48, 72, 96, and 120 hours post infusion for determination of milk somatic cell concentration.

diethylaminoethyl-dextran
new infections (quarters infected during the dry period) [1]: 26 new infections quarters | old infections (quarters remaining infected after calving) [1]: 17 old infections quarters | new infections (quarters infected during the dry period) ([1]; listed as dextran): 26 quarters | old infections (quarters remaining infected after calving) ([1]; listed as dextran): 17 quarters | infected quarters at dry-off ([1]; group total): 38 quarters infected | infected quarters at dry-off ([1]; group total, listed as dextran): 38 quarters | total infections after calving ([1]; group total, old plus new): 43 infections | net gain of intramammary infections ([1]; total after calving compared to infected quarters at dry-off): 5 infections | milk yield per cow more than cows that received antibiotics [2]: approximately 700 pounds | Mean yearly milk yield [2]: Mean 26029 pounds | Mean yearly milk yield ([2]; listed as dextran): 26,029 pounds | milk somatic cell count ([3]; 0 hour, quarters of 4 dairy cows infused with 100 mg at drying-off): 129000 mL⁻¹ | milk somatic cell count ([3]; 24 hours post infusion, 100 mg per quarter at drying-off): 19,591 ×10^3/ml | milk somatic cell count ([3]; 72 hours post infusion, 100 mg per quarter at drying-off): 8,000 ×10^3/ml | milk somatic cell concentration (SCC) increased to ([3]; total dose 100 mg in 1 ml water suspended in 9 ml peanut oil (FIG. 1)): one million | clinical symptoms (swelling, elevated body temperature, redness of udder, pain) ([3]; total dose 100 mg intramammary): no clinical symptoms

From patent publication US7045510B2, “Methods for prevention and treatment of mastitis” (priority 2004, dated 2006)
